The subject of data set [1] is Staphylococcus. In words: Anti-microbial test: microorganisms inoculated into gel formula, survivors counted. The data set is classed as cell-based. On the procedure:
The antimicrobially synergistically effect of alpha Bisabolol (Natural) for glyceryl monoalkyl ether was studied and the results are summarized in Tables 15 and 16, below. […] Subsequently the steareth-100, sodium stearate, and stearyl alcohol were added and the mixture cooled. […] The final compositions were then poured into containers and cooled to room temperature. […] Therefore following formula is gel type. Inoculate test microorganisms to provide a suspension containing from […] microorganisms/ml and after 1 hr, 5 hr and 24 hr, check the surviving microorganisms by incubating in the soybean-casein digest agar for 24 hours at 32.5° C. the results are summarized below.

For data set [2] the following is noted: 0.3% by weight ethylhexylglycerin in ethanol base deodorant vs 0.1% by weight triclosan; cited from earlier work.
Data set [3] relates to odor-causing gram positive bacteria. As to conditions: as reported in U.S. Pat. No. 5,736,574; cited from earlier work.
The conditions of data set [4]: cited from earlier work.

Regarding `CC(C)=CCC[C@](C)(O)[C@@H]1CC=C(C)CC1` [alpha Bisabolol (Natural), alpha-Bisabolol], the “anti-microbial activity (in words)” value in data set [1] (0.2% by weight, with no ethylhexylglycerin) was “no anti-microbial activity”. Besides, in data set [1] (alpha Bisabolol (Natural) combined with ethylhexylglycerin), the “effect on the anti-microbial activity of ethylhexylglycerin” value is reported as “synergistic effect”.

For `CCCCC(CC)COCC(O)CO` (stereo not shown) [ethylhexylglycerin, Ethylhexylglycerin], in data set [2], the “deodorant effectiveness compared with triclosan” value was “just as effective as 0.1% by weight triclosan”. Besides, the “anti-microbial activity against odor-causing gram positive bacteria” value in data set [3] is given as “very low”. Further, the stability result in data set [4] (e.g. against hydrolysis and elevated temperatures) is listed as “rather stable”. Besides, the “solubility in fats and organic solvents” value in data set [4] (fats and organic solvents like alcohols, glycols and glycol ethers) is given as “completely soluble”. In addition, the solubility in water in data set [4] (water) was 0.2%.

The values above are taken from patent publication US20080292571A1, “Deodorant composition with monocyclic, unsaturated sequiterpene alcohols and glyceryl monoalkyl ethers as synergistic active deodorant agents” (priority 2007, published 2008).
